According to PMC11489226 (Archives of Toxicology, 2024):
Values joined by “and” are separate entries in the source; they are usually repeats but may differ in a detail not shown here. Equal values may be shown once.

Legend:
CYP3A4 = CYP3A4 (Homo sapiens, UniProt P08684); test: Metabolism in transgenic HEK293 cells expressing CYP3A4; details: 20 µM parent PCB, 24 h, supernatant
Description: (§1) For the generation of transgenic cell lines, we used semi-adherent HEK293 cells (DSMZ, ACC305, human embryonic kidney cells) which were cultured on a daily basis in DMEM medium supplemented with 10% (FCS) and 1% penicillin/streptomycin. In a first step CYP1A2, CYP2C8, CYP2C9, CYP3A4, CYP2A6, and CYP2E1 cDNA were cloned into the plasmid pcDNATM3.1/V5-His TOPO® using human liver RNA as a template and using the following primers: CYP1A2 for5′-[…]-3′, CYP1A2 rev 5′-[…]-3′; CYP2C8 for 5′-[…]-3′, CYP2C8 rev 5′-[…]-3′; CYP2C9 for 5′-[…]-3′, CYP2C9 rev 5′-[…]-3′; CYP3A4 for 5′-[…]-3′, CYP3A4 rev 5′-[…]-3′, CYP2A6 for 5′-[…]-3′, CYP2A6 rev 5′-[…]-3′; CYP2E1 for 5′-[…]-3′, CYP2E1 rev 5′-[…]-3′. Final constructs were verified with Sanger DNA sequencing and restriction digestion. For transfection, 3 × 10^6 HEK293 cells were pre-incubated in a 10 cm dish in DMEM medium with 10% FCS, but without antibiotics, for 18 to 24 h. When the cells reached approximately 70% confluency, they were transfected using TransIT-LT1 transfection reagent (Biozol, Eiching, Germany). The TransIT-LT1 reagent was warmed to room temperature and vortexed. 1.63 mL Opti-MEM, 16.25 µL plasmid DNA (1 µg/µL), and 48.75 µL TransIT-LT1 reagent were mixed and incubated for 15 to 30 min. The mixture was then added dropwise to the medium of the cells, and the cells were incubated again at 37 °C and 5% CO2. After 24 h, the medium was replaced with standard medium and geneticin was added for selection (1 mg/mL). Cells were selected for 6–8 weeks in bulk culture, and single cell clones were obtained subsequently by limiting dilution. Each clone was checked for insertion by PCR using genomic DNA as a template.
(§2) Parallel samples were run without the addition of PCBs. At a confluence of 80%, PCBs (20 μM each, dissolved in ethanol) were added and cells were incubated for 24 h before harvest of supernatants. Supernatants were diluted 1:2 with 80 μL acetate buffer 0.1 M (pH = 5.3). 100 μL of this dilution were further incubated with 100 μL of ammonium acetate buffer 0.1 M (pH = 5.3) and 5 μL of β-Glucuronidase/Arylsulfatase enzyme overnight in a drying oven at 37 °C for enzymatic hydrolysis to release conjugated compounds. 50 μL of a mix of internal standards (10 ng/mL) and 600 μL of methanol were added to the samples, then mixed by vortexing for 1 min and centrifuged for 10 min at 3400g. The individual supernatants were transferred to glass LC vials and evaporated to approximately 50 μL at 45 °C under a gentle stream of nitrogen. Finally, 0.1 mol/ L ammonium acetate buffer was added to a final volume of 100 μL and then transferred to an insert for analysis.
(§3) HEK293 cells overexpressing the respective CYP enzymes were seeded onto 6-well plates and were treated with or without 10 µM of the respective probe drug in DMEM medium for 24 hours at 37 °C and 5 % CO2. After incubation 200 µL DMEM were collected, cells were washed with PBS and adherent cells were lysed in 500 µL methanol for 20 minutes. Analytes were measured by LC-MS/MS either in methanol cell lysates or in DMEM supernatant.
(§4) 50 µL of DMEM samples were protein precipitated by adding 200 µL of methanol and were centrifuged for 20 min, 17,000 g and 4°C. Supernatants were diluted in water or 40 % methanol according to dilution factor. Methanol cell lysates were diluted ½ with water and centrifuged for 20 min, 17,000 g and 4°C. 5 µL of the processed samples were injected for LC-MS analysis.

CYP2A6 = biological target: T1, CYP2A6 (Homo sapiens, UniProt P11509); test: Metabolism in transgenic HEK293 cells expressing CYP2A6; assay type: in vitro ADME; set-up: V5-His (vector-encoded) (C); expressed in transfected cells; details: 20 µM parent PCB, 24 h; for Quantification of metabolites generated from PCB28, 52, and 101: supernatant
T1 sequence (P11509 1-494): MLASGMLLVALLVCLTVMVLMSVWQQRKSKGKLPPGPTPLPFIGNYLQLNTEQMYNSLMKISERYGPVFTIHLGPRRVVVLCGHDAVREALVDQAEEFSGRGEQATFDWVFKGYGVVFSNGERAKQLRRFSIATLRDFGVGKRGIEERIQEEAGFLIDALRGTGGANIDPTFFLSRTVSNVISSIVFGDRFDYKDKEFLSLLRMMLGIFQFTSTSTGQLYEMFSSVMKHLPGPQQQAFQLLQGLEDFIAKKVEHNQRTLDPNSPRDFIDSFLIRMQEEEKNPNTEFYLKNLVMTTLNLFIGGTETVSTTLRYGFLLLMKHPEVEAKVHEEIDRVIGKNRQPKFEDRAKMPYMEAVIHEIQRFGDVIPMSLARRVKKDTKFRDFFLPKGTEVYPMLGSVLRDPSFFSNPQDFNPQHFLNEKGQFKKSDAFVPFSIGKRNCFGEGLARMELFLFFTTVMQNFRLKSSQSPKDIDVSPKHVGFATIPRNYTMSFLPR
Description: as §1, §2, §3, §4

CYP2E1 = CYP2E1 (Homo sapiens, UniProt P05181); test: Metabolism in transgenic HEK293 cells expressing CYP2E1; details: 20 µM parent PCB, 24 h, supernatant
Description: as §1, §2, §3, §4

Sequence of CYP2E1 (P05181 whole entry): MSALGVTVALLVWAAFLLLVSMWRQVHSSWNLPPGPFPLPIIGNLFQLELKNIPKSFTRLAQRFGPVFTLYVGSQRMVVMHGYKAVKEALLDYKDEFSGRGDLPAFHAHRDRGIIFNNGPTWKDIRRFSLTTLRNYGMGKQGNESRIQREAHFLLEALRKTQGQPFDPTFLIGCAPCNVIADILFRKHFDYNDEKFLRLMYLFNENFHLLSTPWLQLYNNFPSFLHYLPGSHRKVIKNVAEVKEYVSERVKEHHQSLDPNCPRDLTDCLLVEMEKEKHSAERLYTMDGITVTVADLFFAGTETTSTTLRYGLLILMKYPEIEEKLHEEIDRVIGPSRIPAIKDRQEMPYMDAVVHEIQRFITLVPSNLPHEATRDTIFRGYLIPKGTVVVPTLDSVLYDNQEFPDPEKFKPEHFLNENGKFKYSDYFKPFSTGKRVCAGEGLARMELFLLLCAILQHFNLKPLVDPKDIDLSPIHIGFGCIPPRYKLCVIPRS
Sequence of CYP3A4 (P08684 whole entry): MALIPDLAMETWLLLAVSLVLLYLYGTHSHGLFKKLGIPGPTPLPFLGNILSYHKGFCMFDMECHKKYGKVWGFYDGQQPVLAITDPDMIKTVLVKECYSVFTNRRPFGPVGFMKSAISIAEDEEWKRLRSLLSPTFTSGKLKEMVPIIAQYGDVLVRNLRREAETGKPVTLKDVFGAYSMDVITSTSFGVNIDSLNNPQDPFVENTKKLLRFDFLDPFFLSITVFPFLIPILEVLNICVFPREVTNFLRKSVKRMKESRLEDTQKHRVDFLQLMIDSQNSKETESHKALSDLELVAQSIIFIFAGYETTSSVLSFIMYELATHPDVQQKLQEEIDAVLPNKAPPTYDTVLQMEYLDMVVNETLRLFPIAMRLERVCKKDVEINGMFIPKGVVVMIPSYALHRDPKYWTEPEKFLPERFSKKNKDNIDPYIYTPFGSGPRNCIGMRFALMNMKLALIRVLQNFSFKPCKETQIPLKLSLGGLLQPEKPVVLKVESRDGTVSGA

Compound: Oc1cc(-c2ccc(Cl)cc2)c(Cl)cc1Cl [5-OHCB28, 2,4,4′-trichloro-5-biphenylol]
- Quantification of metabolites generated from PCB28, 52, and 101 (CYP3A4; CYP3A4 Clone B4): <LOQ
- Quantification of metabolites generated from PCB28, 52, and 101 (CYP3A4; CYP3A4 Clone D10): <LOQ
- Quantification of metabolites generated from PCB28, 52, and 101 (CYP3A4; CYP3A4 Clone E6): <LOQ
- Quantification of metabolites generated from PCB28, 52, and 101 (CYP2A6; CYP2A6 Clone B7): 1,84 nM
- Quantification of metabolites generated from PCB28, 52, and 101 (CYP2A6; CYP2A6 Clone C4): 1,33 nM
- Quantification of metabolites generated from PCB28, 52, and 101 (CYP2A6; CYP2A6 Clone C5): 0,22 nM
- Quantification of metabolites generated from PCB28, 52, and 101 (CYP2E1; CYP2E1 Clone B4): <LOQ
- Quantification of metabolites generated from PCB28, 52, and 101 (CYP2E1; CYP2E1 Clone B5): <LOQ
- Quantification of metabolites generated from PCB28, 52, and 101 (CYP2E1; CYP2E1 Clone E6): <LOQ

Compound: Oc1cc(Cl)c(-c2ccc(Cl)cc2)cc1Cl [4-OHCB31, 2,4′,5-trichloro-4-biphenylol]
- Quantification of metabolites generated from PCB28, 52, and 101 (CYP3A4; CYP3A4 Clone B4): <LOQ
- Quantification of metabolites generated from PCB28, 52, and 101 (CYP3A4; CYP3A4 Clone D10): <LOQ
- Quantification of metabolites generated from PCB28, 52, and 101 (CYP3A4; CYP3A4 Clone E6): <LOQ
- Quantification of metabolites generated from PCB28, 52, and 101 (CYP2A6; CYP2A6 Clone C4): 0,63 nM
- Quantification of metabolites generated from PCB28, 52, and 101 (CYP2A6; CYP2A6 Clone C5): 0,11 nM
- Metabolite concentration formed, range across cell clones (CYP2A6; HEK293CYP2A6 cell lines): 0.18–1.31 µg/L and 0.66–4.8 nM
- Quantification of metabolites generated from PCB28, 52, and 101 (CYP2E1; CYP2E1 Clone B4): <LOQ
- Quantification of metabolites generated from PCB28, 52, and 101 (CYP2E1; CYP2E1 Clone B5): <LOQ
- Quantification of metabolites generated from PCB28, 52, and 101 (CYP2E1; CYP2E1 Clone E6): <LOQ
